Measured values published in patent US8466088B2, “Herbicidal compositions containing benzoylpyrazole compounds” (Ishihara Sangyo Kaisha, Ltd., priority 2007, dated 2013).
Like-named read-outs stand apart in the source and are kept apart here.

Experiments:
velvetleaf = experiment: Example 1: pot test, foliar treatment, visually observed growth inhibition of velvetleaf; format: in vivo, Abutilon theophrasti MEDIC.
Excerpt: (§1) When the herbicidal activity in a case where two active ingredients are combined, is larger than the simple sum of the respective herbicidal activities of the two active ingredients (the expected activity), it is called a synergistic effect. The activity expected by the combination of two active ingredients can be calculated as follows (Colby S. R., “Weed”, vol. 15, p. 20-22, 1967). E=α+β−(α×β+100) where
(§2) α: growth inhibition rate when treated with x (g/ha) of herbicide X,
(§3) β: growth inhibition rate when treated with y (g/ha) of herbicide Y,
(§4) E: growth inhibition rate expected when treated with x (g/ha) of herbicide X and y (g/ha) of herbicide Y.
(§5) That is, when the actual growth inhibition rate (measured value) is larger than the growth inhibition rate by the above calculation (calculated value), the activity by the combination can be regarded as showing a synergistic effect.
(§6) Upland field soil was put into a 1/1,000,000 hectare pot, and seeds of various plants were sown. When the respective plants reached predetermined leaf stage, herbicidal compositions in predetermined amounts were diluted with water in an amount corresponding to 300 L/ha and applied for foliar treatment by a small sprayer.
(§7) Further, in accordance with the above Colby's formula, the growth inhibition rate (calculated value) was calculated. In Tables, with respect to the compound A, Compound Nos. in Table 1 or 3 are described, and with respect to other herbicidal compounds, common names are described.

crabgrass = experiment: Example 1: pot test, foliar treatment, visually observed growth inhibition of crabgrass; format: in vivo
Excerpt: as §1, §2, §3, §4, §5, §6, §7

[1] = 3.0 to 4.3 leaf stage, 21st day after application, 100 g/ha
[2] = 3.5 to 4.3 leaf stage, 21st day after application, 3.5 g/ha
[3] = 3.8 to 4.4 leaf stage, 21st day after application, 3.5 g/ha

NCCO.O=C(O)c1nc(Cl)ccc1Cl [Clopyralid-olamine]
Growth inhibition rate (%) of velvetleaf, Measured value (velvetleaf; 3.3 to 4.3 leaf stage, 20th day after application, 150 g/ha): 5% | Growth inhibition rate (%) of velvetleaf, Measured value (velvetleaf; 3.3 to 4.3 leaf stage, 20th day after application, 300 g/ha): 10% | Growth inhibition rate (%) of velvetleaf, Measured value (velvetleaf; 3.5 to 4.1 leaf stage, 14th day after application, 150 g/ha): 20% | Growth inhibition rate (%) of velvetleaf, Measured value (velvetleaf; 3.5 to 4.1 leaf stage, 14th day after application, 300 g/ha): 20% | Growth inhibition rate (%) of crabgrass, Measured value (crabgrass; [1]): 0%

CNC.COc1c(Cl)ccc(Cl)c1C(=O)O [Dicamba-dimethylammonium]
Growth inhibition rate (%) of velvetleaf, Measured value (velvetleaf; 2.0 to 2.8 leaf stage, 21st day after application, 100 g/ha): 50% | Growth inhibition rate (%) of velvetleaf, Measured value (velvetleaf; 2.0 to 2.8 leaf stage, 21st day after application, 200 g/ha): 55% | Growth inhibition rate (%) of velvetleaf, Measured value (velvetleaf; 3.0 to 3.8 leaf stage, 28th day after application, 100 g/ha): 50% | Growth inhibition rate (%) of velvetleaf, Measured value (velvetleaf; 3.2 to 5.0 leaf stage, 14th day after application, 100 g/ha): 50% | Growth inhibition rate (%) of velvetleaf, Measured value (velvetleaf; 3.2 to 5.0 leaf stage, 21st day after application, 100 g/ha): 50% | Growth inhibition rate (%) of velvetleaf, Measured value (velvetleaf; 3.5 to 4.3 leaf stage, 21st day after application, 100 g/ha): 50% | Growth inhibition rate (%) of crabgrass, Measured value (crabgrass; [1]): 0% | Growth inhibition rate (%) of crabgrass, Measured value (crabgrass; 3.0 to 4.3 leaf stage, 21st day after application, 200 g/ha): 0% | Growth inhibition rate (%) of crabgrass, Measured value (crabgrass; 3.5 to 5.0 leaf stage, 22nd day after application, 100 g/ha): 0% | Growth inhibition rate (%) of crabgrass, Measured value (crabgrass; 3.5 to 5.0 leaf stage, 22nd day after application, 200 g/ha): 0% | Growth inhibition rate (%) of crabgrass, Measured value (crabgrass; 3.7 to 4.6 leaf stage, 21st day after application, 100 g/ha): 0% | Growth inhibition rate (%) of crabgrass, Measured value (crabgrass; 3.7 to 4.6 leaf stage, 21st day after application, 200 g/ha): 15%

CC(C)N(C(=O)COc1nnc(C(F)(F)F)s1)c1ccc(F)cc1 [Flufenacet]
inhibition at 300 g/ha (velvetleaf; Abutilon theophrasti, foliar, 3.2 to 4.3 leaf stage, 21st day after application, 300 g/ha, read-out: Growth inhibition rate (%) of velvetleaf, Measured value): 0% | inhibition at 150 g/ha (crabgrass; Digitaria sanguinalis, foliar, 3.0 to 4.3 leaf stage, 21st day after application, 150 g/ha, read-out: Growth inhibition rate (%) of crabgrass, Measured value): 0% | inhibition at 300 g/ha (crabgrass; Digitaria sanguinalis, foliar, 3.0 to 4.3 leaf stage, 21st day after application, read-out: Growth inhibition rate (%) of crabgrass, Measured value): 5% | inhibition at 300 g/ha (crabgrass; Digitaria sanguinalis, foliar, 3.2 to 4.3 leaf stage, 21st day after application, read-out: Growth inhibition rate (%) of crabgrass, Measured value): 10%

CON(C)C(=O)Nc1ccc(Cl)c(Cl)c1 [Linuron]
inhibition at 250 g/ha (velvetleaf; Abutilon theophrasti, foliar, 3.3 to 4.3 leaf stage, 20th day after application, 250 g/ha, read-out: Growth inhibition rate (%) of velvetleaf, Measured value): 55% | inhibition at 500 g/ha (velvetleaf; Abutilon theophrasti, foliar, 3.3 to 4.3 leaf stage, 20th day after application, 500 g/ha, read-out: Growth inhibition rate (%) of velvetleaf, Measured value): 93% | inhibition at 250 g/ha (crabgrass; Digitaria sanguinalis, foliar, 3.5 to 4.2 leaf stage, 14th day after application, 250 g/ha, read-out: Growth inhibition rate (%) of crabgrass, Measured value): 20% | inhibition at 500 g/ha (crabgrass; Digitaria sanguinalis, foliar, 3.5 to 4.2 leaf stage, 14th day after application, 500 g/ha, read-out: Growth inhibition rate (%) of crabgrass, Measured value): 35%

COC(=O)c1c(S(C)(=O)=O)ccc(C(=O)c2cnn(C)c2O)c1C [No. 2-1]
Growth inhibition rate (%) of velvetleaf, Measured value (velvetleaf; [2]): 30% | Growth inhibition rate (%) of crabgrass, Measured value (crabgrass; [3]): 45%

CCOc1c(S(C)(=O)=O)ccc(C(=O)c2cnn(C)c2O)c1C [No. 2-19]
Growth inhibition rate (%) of velvetleaf, Measured value (velvetleaf; 3.2 to 5.0 leaf stage, 14th day after application, 7 g/ha): 60% | Growth inhibition rate (%) of velvetleaf, Measured value (velvetleaf; 3.2 to 5.0 leaf stage, 21st day after application, 7 g/ha): 50% | Growth inhibition rate (%) of crabgrass, Measured value (crabgrass; 3.8 to 5.2 leaf stage, 21st day after application, 7 g/ha): 30%

COCCOc1c(S(C)(=O)=O)ccc(C(=O)c2cnn(C)c2O)c1C [No. 2-28]
Growth inhibition rate (%) of velvetleaf, Measured value (velvetleaf; 3.3 to 4.2 leaf stage, 14th day after application, 7 g/ha): 93% | Growth inhibition rate (%) of velvetleaf, Measured value (velvetleaf; 3.3 to 4.2 leaf stage, 14th day after application, 15 g/ha): 97% | Growth inhibition rate (%) of velvetleaf, Measured value (velvetleaf; 3.3 to 4.2 leaf stage, 22nd day after application, 7 g/ha): 93% | Growth inhibition rate (%) of velvetleaf, Measured value (velvetleaf; 3.3 to 4.2 leaf stage, 22nd day after application, 15 g/ha): 97% | Growth inhibition rate (%) of velvetleaf, Measured value (velvetleaf; 3.5 to 4.0 leaf stage, 14th day after application, 7 g/ha): 83% | Growth inhibition rate (%) of velvetleaf, Measured value (velvetleaf; 3.5 to 4.0 leaf stage, 14th day after application, 15 g/ha): 95% | Growth inhibition rate (%) of velvetleaf, Measured value (velvetleaf; 3.5 to 4.0 leaf stage, 22nd day after application, 7 g/ha): 90% | Growth inhibition rate (%) of velvetleaf, Measured value (velvetleaf; 3.5 to 4.1 leaf stage, 14th day after application, 7 g/ha): 75% | Growth inhibition rate (%) of velvetleaf, Measured value (velvetleaf; 3.5 to 4.1 leaf stage, 14th day after application, 15 g/ha): 85% | Growth inhibition rate (%) of velvetleaf, Measured value (velvetleaf; 3.5 to 4.1 leaf stage, 20th day after application, 7 g/ha): 75% | Growth inhibition rate (%) of velvetleaf, Measured value (velvetleaf; 3.5 to 4.1 leaf stage, 20th day after application, 15 g/ha): 88% | Growth inhibition rate (%) of crabgrass, Measured value (crabgrass; 3.5 to 5.0 leaf stage, 22nd day after application, 7 g/ha): 88% | Growth inhibition rate (%) of crabgrass, Measured value (crabgrass; 3.5 to 5.0 leaf stage, 22nd day after application, 15 g/ha): 93% | Growth inhibition rate (%) of crabgrass, Measured value (crabgrass; 3.6 to 4.5 leaf stage, 14th day after application, 7 g/ha): 90% | Growth inhibition rate (%) of crabgrass, Measured value (crabgrass; 3.6 to 4.5 leaf stage, 14th day after application, 15 g/ha): 97% | Growth inhibition rate (%) of crabgrass, Measured value (crabgrass; 3.6 to 4.5 leaf stage, 22nd day after application, 7 g/ha): 93% | Growth inhibition rate (%) of crabgrass, Measured value (crabgrass; 4.1 to 5.3 leaf stage, 14th day after application, 15 g/ha): 85% | Growth inhibition rate (%) of crabgrass, Measured value (crabgrass; 4.1 to 5.3 leaf stage, 20th day after application, 7 g/ha): 85% | Growth inhibition rate (%) of crabgrass, Measured value (crabgrass; 4.1 to 5.3 leaf stage, 20th day after application, 15 g/ha): 97% | Growth inhibition rate (%) of crabgrass, Measured value (crabgrass; 4.3 to 4.5 leaf stage, 20th day after application, 15 g/ha): 80%

CCOCc1c(S(C)(=O)=O)ccc(C(=O)c2cnn(C)c2O)c1C [No. 2-41]
Growth inhibition rate (%) of velvetleaf, Measured value (velvetleaf; 3.2 to 5.0 leaf stage, 14th day after application, 3.5 g/ha): 70% | Growth inhibition rate (%) of velvetleaf, Measured value (velvetleaf; 3.2 to 5.0 leaf stage, 21st day after application, 3.5 g/ha): 60% | Growth inhibition rate (%) of crabgrass, Measured value (crabgrass; 3.8 to 5.2 leaf stage, 21st day after application, 3.5 g/ha): 35%

CCn1ncc(C(=O)c2ccc(S(C)(=O)=O)c(OCCOC)c2C)c1O [No. 2-161]
Growth inhibition rate (%) of velvetleaf, Measured value (velvetleaf; 3.0 to 3.8 leaf stage, 15th day after application, 3.5 g/ha): 60% | Growth inhibition rate (%) of velvetleaf, Measured value (velvetleaf; 3.0 to 3.8 leaf stage, 15th day after application, 7 g/ha): 60% | Growth inhibition rate (%) of velvetleaf, Measured value (velvetleaf; 3.0 to 3.8 leaf stage, 28th day after application, 3.5 g/ha): 45% | Growth inhibition rate (%) of velvetleaf, Measured value (velvetleaf; 3.0 to 3.8 leaf stage, 28th day after application, 7 g/ha): 65% | Growth inhibition rate (%) of crabgrass, Measured value (crabgrass; 3.3 to 4.2 leaf stage, 28th day after application, 3.5 g/ha): 70% | Growth inhibition rate (%) of crabgrass, Measured value (crabgrass; 3.3 to 4.2 leaf stage, 28th day after application, 7 g/ha): 83%

COCc1c(S(C)(=O)=O)ccc(C(=O)c2cnn(C)c2O)c1C [No. 2-191]
Growth inhibition rate (%) of velvetleaf, Measured value (velvetleaf; [2]): 40% | Growth inhibition rate (%) of crabgrass, Measured value (crabgrass; [3]): 45%
